Where two headings read alike, the source gives them in different places.
Assays:
[1] = molecular target: T1, PDE2 (Bos taurus, UniProt P14099); experiment: Radioenzymatic phosphodiesterase assay: PDE2 inhibition; type: biochemical, bovine; conditions: read-out: PDE2 percentage of inhibition at 10 μM
T1 sequence (P14099 1-921): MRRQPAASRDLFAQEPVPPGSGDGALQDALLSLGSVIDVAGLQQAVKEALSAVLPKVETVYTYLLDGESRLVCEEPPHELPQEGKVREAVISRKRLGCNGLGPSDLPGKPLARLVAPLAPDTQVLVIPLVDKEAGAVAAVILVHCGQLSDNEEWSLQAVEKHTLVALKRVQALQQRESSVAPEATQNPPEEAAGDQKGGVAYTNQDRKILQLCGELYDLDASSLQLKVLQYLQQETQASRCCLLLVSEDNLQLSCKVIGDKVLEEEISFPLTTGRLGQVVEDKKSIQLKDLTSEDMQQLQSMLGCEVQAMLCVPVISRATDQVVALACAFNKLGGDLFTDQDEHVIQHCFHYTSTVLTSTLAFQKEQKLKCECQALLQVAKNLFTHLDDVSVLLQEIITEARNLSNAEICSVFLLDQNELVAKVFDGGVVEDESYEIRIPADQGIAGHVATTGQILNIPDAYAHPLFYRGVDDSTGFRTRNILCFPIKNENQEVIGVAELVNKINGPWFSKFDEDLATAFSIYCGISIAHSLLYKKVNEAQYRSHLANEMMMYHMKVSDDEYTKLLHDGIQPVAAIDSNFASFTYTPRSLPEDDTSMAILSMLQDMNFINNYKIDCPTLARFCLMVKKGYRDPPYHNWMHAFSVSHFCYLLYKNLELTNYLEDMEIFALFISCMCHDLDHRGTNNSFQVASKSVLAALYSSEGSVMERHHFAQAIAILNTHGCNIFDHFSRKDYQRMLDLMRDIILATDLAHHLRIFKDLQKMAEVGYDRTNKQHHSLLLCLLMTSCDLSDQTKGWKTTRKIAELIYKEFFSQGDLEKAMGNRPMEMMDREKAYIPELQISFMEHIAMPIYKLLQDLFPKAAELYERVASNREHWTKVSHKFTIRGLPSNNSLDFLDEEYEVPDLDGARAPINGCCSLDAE
Description: Nucleoside radioactivity was determined by liquid scintillation.

[2] = system: PDE4; experiment: Radioenzymatic phosphodiesterase assay: PDE4 inhibition (selectivity); conditions: Table 2, PDE4 of vascular smooth muscle; for PDE4 percentage of inhibition at 10 μM: 10 μM test compound
Description: (§1) 3 g of tunica media from bovine aorta was cut in small piece and homogenized in a glass potter with 7 volumes/weight of buffer A containing protease inhibitors cocktails (20 mM Tris-HCl, 0.25 M saccharose, 2 mM magnesium acetate, 1 mM dithiothreitol, 5 mM EGTA, 2000 U/ml aprotinine, 10 mg/l leupeptine, 10 mg/l of soybean chemotrypsin inhibitor). The homogenate was centrifuged at 875000 g for 1 h and the surpernant was then transferred in DEAE-Sephacel (15×1.6 cm). The column was equilibrated beforehand with a buffer B (buffer A without saccharose, d'EGTA and protease inhibitors). […] Fractions were aliquoted and stored at −80° C. until further use.
(§2) The monophosphated adenosine or guanosine released by the hydrolysis of tritiated cyclic nucleotides was transformed into tritiated adenosine or guanosine by excess of nucleotidase. The obtained nucleoside was separated from nucleotides by anion exchange chromatography. Nucleoside radioactivity was determined by liquid scintillation.
(§3) The phosphodiesterase inhibitory activity of compounds was evaluated on other isoforms of phosphodiesterases such as PDE3, and PDE4 of vascular smooth muscle.

[3] = system: PDE3; experiment: Radioenzymatic phosphodiesterase assay: PDE3 inhibition (selectivity); conditions: Table 2; 10 μM test compound; PDE3 of vascular smooth muscle
Description: as §1, §2, §3

Row | SMILES | inhibition at 10 µM ([1]; Table 1, 10 μM test compound) [%] | PDE4 percentage of inhibition at 10 μM [2] [%] | PDE3 percentage of inhibition at 10 μM [3] [%] | inhibition at 10 µM [1] [%] | IC50 ([2]; read-out: PDE4 IC50) [nM]
1 | COc1ccccc1-c1cc2c(cc1OC)N(C)C(=O)CN=C2c1cccc(C(N)=O)c1 [Example 21, 3-[8-Methoxy-7-(2-methoxy-phenyl)-1-methyl-2-oxo-2,3-dihydro-1H-benzo[e][1,4]diazepin-5-yl]-benzamide] | 98 | 18 | 9 | – | –
2 | COc1ccc(-c2cc3c(cc2OC)N(C)C(=O)CN=C3c2cccc(C(N)=O)c2)cc1 [Example 22, 3-[8-Methoxy-7-(4-methoxy-phenyl)-1-methyl-2-oxo-2,3-dihydro-1H-benzo[e][1,4]diazepin-5-yl]-benzamide] | 99 | 50 | 22 | – | –
3 | COc1cc2c(cc1-c1ccccc1Cl)C(c1cccc(C(N)=O)c1)=NCC(=O)N2C [Example 23, 3-[7-(2-Chloro-phenyl)-8-methoxy-1-methyl-2-oxo-2,3-dihydro-1H-benzo[e][1,4]diazepin-5-yl]-benzamide] | 95 | 20 | 25 | – | –
4 | COc1ccc(OC)c(-c2ccc3c(c2)C(c2cccc(C(N)=O)c2)=NCC(=O)N3C)c1 [Example 31, 3-[7-(2,5-Dimethoxy-phenyl)-1-methyl-2-oxo-2,3-dihydro-1H-benzo[e][1,4]diazepin-5-yl]-benzamide] | 99 | 25 | 0 | – | –
5 | COc1cccc(OC)c1-c1ccc2c(c1)C(c1cccc(C(N)=O)c1)=NCC(=O)N2C [Example 32, 3-[7-(2,6-Dimethoxy-phenyl)-1-methyl-2-oxo-2,3-dihydro-1H-benzo[e][1,4]diazepin-5-yl]-benzamide] | 100 | 27 | 0 | – | –
6 | COc1ccc(C2=NCC(=O)N(C)c3ccc(-c4c(OC)cccc4OC)cc32)cc1 [Example 75, 7-(2,6-Dimethoxy-phenyl)-5-(4-methoxy-phenyl)-1-methyl-1,3-dihydro-benzo[e][1,4]diazepin-2-one] | 99 | 78 | 4 | – | –
7 | COc1cc2c(cc1-c1c(OC)cccc1OC)C(c1cccc(C(N)=O)c1)=NCC(=O)N2C [Example 92, 3-[7-(2,6-Dimethoxy-phenyl)-8-methoxy-1-methyl-2-oxo-2,3-dihydro-1H-benzo[e][1,4]diazepin-5-yl]-benzamide] | 97 | 23 | 52 | – | –
8 | COc1cc2c(cc1-c1ccccc1Oc1ccccc1)C(c1cccc(C(N)=O)c1)=NCC(=O)N2C [Example 93, 3-[8-Methoxy-1-methyl-2-oxo-7-(2-phenoxy-phenyl)-2,3-dihydro-1H-benzo[e][1,4]diazepin-5-yl]-benzamide] | 98 | 56 | 72 | – | –
9 | COc1cccc(OC)c1-c1ccc2c(c1)C(c1ccc(F)cc1)=NCC(=O)N2C [Example 100, 7-(2,6-Dimethoxy-phenyl)-5-(4-fluoro-phenyl)-1-methyl-1,3-dihydro-benzo[e][1,4]diazepin-2-one] | – | 77 | 0 | 96 | –
10 | CCCCC#Cc1ccc(C2=NCC(=O)N(C)c3cc(OC)c(-c4ccccc4)cc32)cc1 [Example 105, 5-(4-Hex-1-ynyl-phenyl)-8-methoxy-1-methyl-7-phenyl-1,3-dihydro-benzo[e][1,4]diazepin-2-one] | – | – | – | 42 | –
11 | COCCCc1ccc(C2=NCC(=O)N(C)c3cc(OC)c(-c4ccccc4)cc32)cc1 [Example 106, 8-Methoxy-5-[4-(3-methoxy-propyl)-phenyl]-1-methyl-7-phenyl-1,3-dihydro-benzo[e][1,4]diazepin-2-one] | – | – | – | 47 | –
12 | COc1cc2c(cc1-c1ccccc1)C(c1ccc(CCCNC(=O)OC(C)(C)C)cc1)=NCC(=O)N2C [Example 107, {3-[4-(8-Methoxy-1-methyl-2-oxo-7-phenyl-2,3-dihydro-1H-benzo[e][1,4]diazepin-5-yl)-phenyl]-propyl}-carbamic acid tert-butyl ester] | – | – | – | 92 | –
13 | COc1ccc(C2=NCC(=O)N(C)c3cc(OC)c(-c4ccccc4OC)cc32)cc1 [Example 108, 8-Methoxy-5-(4-methoxy-phenyl)-7-(2-methoxy-phenyl)-1-methyl-1,3-dihydro-benzo[e][1,4]diazepin-2-one] | – | – | – | 99 | –
14 | COc1ccc(C2=NCC(=O)N(C)c3cc(OC)c(-c4c(OC)cccc4OC)cc32)cc1 [Example 109, 7-(2,6-Dimethoxy-phenyl)-8-methoxy-5-(4-methoxy-phenyl)-1-methyl-1,3-dihydro-benzo[e][1,4]diazepin-2-one] | 99 | 90 | 37 | – | 1000
15 | COc1ccc(C2=NCC(=O)N(C)c3cc(OC)c(-c4cc(OC)ccc4OC)cc32)cc1 [Example 110, 7-(2,5-Dimethoxy-phenyl)-8-methoxy-5-(4-methoxy-phenyl)-1-methyl-1,3-dihydro-benzo[e][1,4]diazepin-2-one] | – | – | – | 99 | –
16 | COc1ccc(C2=NCC(=O)N(C)c3cc(OC)c(-c4c(F)cccc4OC)cc32)cc1 [Example 111, 7-(2-Fluoro-6-methoxy-phenyl)-8-methoxy-5-(4-methoxy-phenyl)-1-methyl-1,3-dihydro-benzo[e][1,4]diazepin-2-one] | – | – | – | 99 | –
17 | COc1ccc(C2=NCC(=O)N(C)c3cc(OC)c(-c4ccccc4Oc4ccccc4)cc32)cc1 [Example 112, 8-Methoxy-5-(4-methoxy-phenyl)-1-methyl-7-(2-phenoxy-phenyl)-1,3-dihydro-benzo[e][1,4]diazepin-2-one] | – | – | – | 99 | –
18 | COc1cc2c(cc1-c1ccccc1)C(c1ccc(Br)cc1)=NCC(=O)N2C [Example 113, 5-(4-Bromo-phenyl)-8-methoxy-1-methyl-7-phenyl-1,3-dihydro-benzo[e][1,4]diazepin-2-one] | 94 | – | – | – | –
19 | COc1cc2c(cc1-c1ccccc1)C(c1ccc(Br)cc1)=NCC(=O)N2 [Example 114, 5-(4-Bromo-phenyl)-8-methoxy-7-phenyl-1,3-dihydro-benzo[e][1,4]diazepin-2-one] | 72 | – | – | – | –
20 | COc1cccc(OC)c1-c1ccc2c(c1)C(c1cccc(C)c1)=NCC(=O)N2C [Example 115, 7-(2,6-Dimethoxy-phenyl)-1-methyl-5-m-tolyl-1,3-dihydro-benzo[e][1,4]diazepin-2-one] | – | 42 | 3 | 96 | –

Reference: patent US7410963B2, “Benzo-1,4-diazepin-2-one derivatives as phosphodiesterase PDE2 inhibitors, preparation and therapeutic use thereof” (VIA Pharmaceuticals, Inc., priority 2003, dated 2008)
